Results as given in patent US20070264679A1, “Method for analyzing the activity of lipoxygenase using a water-soluble substrate” (Chungnam National University Industry Collaboration …, priority 2006, published 2007).

Tests used:
Reticulocyte LOX = molecular target: T1, Reticulocyte LOX (Oryctolagus cuniculus, UniProt P12530); assay: Kinetics of oxygenation of linoleoylated substrates by reticulocyte LOX; format: biochemical, Rabbit; details: reticulocyte LOX 8.2 units/ml, 50 mM phosphate buffer pH 7.4, 25° C.
T1 construct: purchased Biomol Inc. (Plymouth Meeting, Pa., USA)
T1 sequence (P12530 1-663): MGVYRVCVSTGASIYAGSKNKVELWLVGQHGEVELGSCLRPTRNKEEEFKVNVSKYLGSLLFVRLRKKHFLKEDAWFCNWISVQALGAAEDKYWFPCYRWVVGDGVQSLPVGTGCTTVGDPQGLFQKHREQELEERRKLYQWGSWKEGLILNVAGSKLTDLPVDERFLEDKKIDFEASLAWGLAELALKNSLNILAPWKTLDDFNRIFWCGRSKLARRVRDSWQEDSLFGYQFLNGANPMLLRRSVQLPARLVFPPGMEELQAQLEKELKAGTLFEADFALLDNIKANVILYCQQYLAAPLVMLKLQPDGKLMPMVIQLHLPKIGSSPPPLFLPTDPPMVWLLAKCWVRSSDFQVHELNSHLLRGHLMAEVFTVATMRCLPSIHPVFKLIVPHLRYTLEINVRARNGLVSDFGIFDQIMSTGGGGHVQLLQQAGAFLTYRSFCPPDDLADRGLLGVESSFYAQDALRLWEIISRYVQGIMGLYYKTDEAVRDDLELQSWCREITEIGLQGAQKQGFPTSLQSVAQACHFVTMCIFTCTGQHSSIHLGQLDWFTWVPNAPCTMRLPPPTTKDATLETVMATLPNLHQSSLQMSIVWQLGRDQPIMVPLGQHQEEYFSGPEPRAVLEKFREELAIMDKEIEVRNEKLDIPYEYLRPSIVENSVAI
Excerpt: Data were expressed as means ±S.D. of results from at least three independent experiments.

lipoxygenase = molecular target: T2, lipoxygenase (Glycine max, UniProt P08170); details: Perez-Gilabert et al. 1998; cited from earlier work
T2 sequence (P08170 1-839): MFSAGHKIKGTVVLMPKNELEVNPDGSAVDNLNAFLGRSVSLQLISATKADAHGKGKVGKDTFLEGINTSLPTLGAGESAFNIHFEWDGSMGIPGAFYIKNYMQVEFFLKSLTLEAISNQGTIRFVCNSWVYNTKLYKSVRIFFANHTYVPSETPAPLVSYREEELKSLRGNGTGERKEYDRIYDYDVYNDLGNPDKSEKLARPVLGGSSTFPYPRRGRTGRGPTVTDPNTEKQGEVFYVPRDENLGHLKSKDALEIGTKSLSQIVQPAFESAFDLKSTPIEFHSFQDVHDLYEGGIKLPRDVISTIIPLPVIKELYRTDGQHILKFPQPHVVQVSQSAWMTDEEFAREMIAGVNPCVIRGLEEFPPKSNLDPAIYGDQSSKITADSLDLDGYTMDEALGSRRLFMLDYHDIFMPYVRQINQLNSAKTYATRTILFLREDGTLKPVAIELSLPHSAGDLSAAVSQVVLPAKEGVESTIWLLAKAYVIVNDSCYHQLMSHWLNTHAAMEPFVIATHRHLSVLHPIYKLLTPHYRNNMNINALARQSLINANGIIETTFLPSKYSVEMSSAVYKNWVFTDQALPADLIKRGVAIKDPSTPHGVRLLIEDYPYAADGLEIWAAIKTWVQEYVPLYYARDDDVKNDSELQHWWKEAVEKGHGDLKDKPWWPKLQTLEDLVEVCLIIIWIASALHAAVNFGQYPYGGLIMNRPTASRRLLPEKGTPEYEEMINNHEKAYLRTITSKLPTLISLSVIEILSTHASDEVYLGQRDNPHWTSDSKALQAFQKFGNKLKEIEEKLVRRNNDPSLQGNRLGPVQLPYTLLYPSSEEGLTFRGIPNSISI

soybean LOX-1 [1] = molecular target: T3, soybean LOX-1 (Glycine max, UniProt P08170); assay: Kinetics of oxygenation of docosahexaenoic acid derivatives by soybean LOX-1; format: biochemical; details: soybean LOX-1 2.5 units/ml, 50 mM borax buffer pH 9.0, 25° C.
T3 construct: purchased Sigma-Aldrich Corp (St. Louis, Mo., USA) lipoxidase Type I-B
T3 sequence (P08170 1-839): T2 sequence (P08170 1-839)
Experimental: Soybean LOX-1 (2.5 units/ml) was incubated with docosahexaenoyl-lysoPC, didocosahexaenoyl-lysoPC or docosahexaenoic acid of various concentrations in 500 μl of 50 mM borax buffer (pH 9.0) at 25° C. Values were expressed as means ±S.D. of results from at least three independent experiments.

Porcine leukocyte LOX = molecular target: T4, Porcine leukocyte LOX (Sus scrofa, UniProt P16469); assay: Kinetics of oxygenation of docosahexaenoyl-lysoPC or docosahexaenoic acid by leukocyte LOX; format: biochemical; details: porcine leukocyte LOX 2 units/ml, 100 mM phosphate buffer pH 7.4, 5 mM EDTA
T4 construct: purchased Cayman Chemical Co. (Ann Arbor, Mich., USA)
T4 sequence (P16469 1-663): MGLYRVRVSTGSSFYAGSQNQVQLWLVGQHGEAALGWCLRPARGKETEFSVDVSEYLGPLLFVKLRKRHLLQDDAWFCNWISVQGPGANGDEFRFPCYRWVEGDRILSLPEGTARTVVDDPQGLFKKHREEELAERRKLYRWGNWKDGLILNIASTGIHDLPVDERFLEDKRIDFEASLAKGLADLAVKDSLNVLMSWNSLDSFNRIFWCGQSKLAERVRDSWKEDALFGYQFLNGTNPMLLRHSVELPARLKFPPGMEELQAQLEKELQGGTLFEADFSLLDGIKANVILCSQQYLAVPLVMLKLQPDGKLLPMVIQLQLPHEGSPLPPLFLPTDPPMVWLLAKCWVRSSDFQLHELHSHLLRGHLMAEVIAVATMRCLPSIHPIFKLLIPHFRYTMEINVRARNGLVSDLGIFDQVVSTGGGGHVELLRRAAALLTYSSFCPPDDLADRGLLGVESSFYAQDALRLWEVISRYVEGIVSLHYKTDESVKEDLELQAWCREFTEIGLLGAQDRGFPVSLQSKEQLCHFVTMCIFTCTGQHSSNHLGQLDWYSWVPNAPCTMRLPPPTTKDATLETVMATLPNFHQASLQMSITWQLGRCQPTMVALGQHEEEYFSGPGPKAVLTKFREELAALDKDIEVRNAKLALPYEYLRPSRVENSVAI
Experimental: Porcine leukocyte LOX (2 units/ml) was incubated with each substrate docosahexaenoyl-lysoPC or docosahexaenoic acid of various concentrations in 500 μl of 100 mM phosphate buffer (pH 7.4) containing 5 mM EDTA and 0.03% Tween 20 at 25° C.

soybean LOX-1 [2] = molecular target: T3, soybean LOX-1; assay: Kinetics of oxygenation of arachidonic acid or arachidonoyl-lysophospholipids by soybean LOX-1; format: biochemical; details: soybean LOX-1 2.5 units/ml; for Vm: 50 mM borax buffer pH 9.0, unit = one nanomole conjugated diene per min
Experimental: (§1) Activities of various LOXs were monitored by measuring the increase in absorbance at 234 nm due to the formation of hydroperoxide (ε234=25,000 M^−1 cm^−1) at 25° C. as described before (Smith et al, J. Biol. Chem. 247 (1972) 1038-1047). One unit is defined as the amount of LOXs that can produce one nanomole of conjugated diene per min. The reaction mixture (500 μl) included reticulocyte LOX (2 units/ml) in 50 mM phosphate buffer (pH 7.4), porcine leukocyte LOX (1 unit/ml) in 100 mM phosphate buffer (pH 7.5) containing 5 mM EDTA and 0.03% Tween 20, or soybean LOX-1 (2.5 units/ml) in 50 mM borax buffer (pH 9.0) at 25° C. The reactions were started by including each substrate (100 μM) into the above reaction mixture.
(§2) Reticulocyte LOX (2 units/ml), leukocyte LOX (1 units/ml) or soybean LOX-1 (2.5 units/ml) was incubated with each arachidonoyl derivative substrate of various concentrations as described above. The values of kinetic parameters were obtained according to Lineweaver Burke plot analyses as described before (Barroso et al, J. Chromatogr. B. Analyt. Technol. Biomed. Life. Sci. 814 (2005) 21-28).

[3] = molecular target: T5, Leukocyte 12-lipoxygenase (leukocyte LOX) (Sus scrofa, UniProt P16469); assay: Kinetics of oxygenation of arachidonic acid or arachidonoyl-lysophospholipids by leukocyte LOX; format: biochemical, porcine; details: leukocyte LOX 1 unit/ml, 100 mM phosphate buffer pH 7.5, 5 mM EDTA; for Vm: 0.03% Tween 20
T5 construct: purchased Cayman Chemical Co. (Ann Arbor, Mich., USA)
T5 sequence (P16469 1-663): T4 sequence (P16469 1-663)
Experimental: as §1, §2

[4] = molecular target: T6, Rabbit reticulocyte 15-lipoxygenase (reticulocyte LOX) (Oryctolagus cuniculus, UniProt P12530); assay: Oxygenation of arachidonoyl lysophospholipids by reticulocyte LOX; format: biochemical; details: reticulocyte LOX 2 units/ml, 50 mM phosphate buffer pH 7.4
T6 construct: purchased Biomol Inc. (Plymouth Meeting, Pa., USA)
T6 sequence (P12530 1-663): T1 sequence (P12530 1-663)
Experimental: as §1, §2
It is noteworthy that the efficacy of arachidonoyl-lysoPC as a substrate for leukocyte LOX was approximately 10-fold greater than that of arachidonic acid. In an additional study, the oxygenation of arachidonoyl-lysoPC or arachidonoyl-lysoPA by reticulocyte LOX was examined. […]

## CCCCC/C=C\C/C=C\CCCCCCCC(=O)OC[C@H](COP(=O)([O-])OCC[N+](C)(C)C)OC(=O)CCCCCCC/C=C\C/C=C\CCCCC [Dilinoleoyl-PC, Dilinoleoyl phosphatidylcholine]
Reticulocyte LOX
  Vm: 646 ± 20 units/mg
Reticulocyte LOX; substrate 3-100 μM
  Km: 71.7 ± 6.9 µM
lipoxygenase
  lipoxygenation rate relative to linoleic acid (times slower): about 4 times

## CC/C=C\C/C=C\C/C=C\C/C=C\C/C=C\C/C=C\CCC(=O)OCC(O)COP(=O)([O-])OCC[N+](C)(C)C (centres unmarked) [Docosahexaenoyl-lysoPC, 1-docosahexenoyl lysophosphatidylcholine]
Soybean LOX-1 [1]
  Km: 2.2 ± 0.6 µM
  Vm: 104.2 ± 5.2 units/μg
Porcine leukocyte LOX; 0.03% Tween 20
  Vm: 77.2 ± 2.8 units/mg
Porcine leukocyte LOX; 0.03% Tween 20, 25° C.
  Km: 3.4 ± 1.8 µM

## CCCCC/C=C\C/C=C\C/C=C\C/C=C\CCCC(=O)OCC(O)COP(=O)(O)O (centres unmarked) [Arachidonoyl-lysoPA, 1-arachidonoyl lysophosphatidic acid]
Soybean LOX-1 [2]; 50 mM borax buffer pH 9.0, 25° C.
  Km: 15.4 µM
Soybean LOX-1 [2]
  Vm: 147.8 ± 2.3 units/μg
Soybean LOX-1 [2]; listed as arachidonoyl-lysoPA
  Vm: 147.8 units/μg
[3]
  Vm: 33.5 ± 2.9 units/mg
[3]; 0.03% Tween 20, 25° C.
  Km: 8.6 µM
[3]; listed as arachidonoyl-lysoPA
  Vm: 33.5 units/mg
[4]
  Vm/Km value in reticulocyte LOX-catalyzed oxygenation compared with arachidonic acid: somewhat greater than that of arachidonic acid
